Assay results published in patent US20160367623A1, “AGONISTS OF GUANYLATE CYCLASE USEFUL FOR THE TREATMENT OF GASTROINTESTINAL DISORDERS, INFLAMMATION, CANCER AND OTHER DISORDERS” (priority 2015, published 2016).
Bridge positions count the residues as written; N and C are the ends. Ends that are not written are not given here.

Tested on: patients with chronic idiopathic constipation (CIC)
Test: Second phase 3 CIC trial: change from baseline in CSBMs/week
Type: in vivo, human
Conditions: MRA
[1] = Week 8, 6 mg, ITT Population-Excluding Duplicate Patients
[2] = Week 9, 3 mg, ITT Population-Excluding Duplicate Patients
[3] = Week 9, 6 mg, ITT Population-Excluding Duplicate Patients
[4] = Week 10, 3 mg, ITT Population-Excluding Duplicate Patients
[5] = Week 10, 6 mg, ITT Population-Excluding Duplicate Patients
[6] = Week 11, 3 mg, ITT Population-Excluding Duplicate Patients
[7] = Week 11, 6 mg, ITT Population-Excluding Duplicate Patients
[8] = Week 12, 3 mg, ITT Population-Excluding Duplicate Patients
[9] = Week 12, 6 mg, ITT Population-Excluding Duplicate Patients
[10] = overall average estimate across the 12-week treatment period, 3 mg, ITT Population
[11] = overall average estimate across the 12-week treatment period, 3 mg, ITT Population-Excluding Duplicate Patients
[12] = overall average estimate across the 12-week treatment period, 6 mg, ITT Population
[13] = overall average estimate across the 12-week treatment period, 6 mg, ITT Population-Excluding Duplicate Patients

## Asn^1-Asp^2-Glu^3-Cys^4-Glu^5-Leu^6-Cys^7-Val^8-Asn^9-Val^10-Ala^11-Cys^12-Thr^13-Gly^14-Cys^15-Leu^16 (NDECELCVNVACTGCL; disulfide 4-12, 7-15) [Plecanatide, uroguanylin analogue, guanylate cyclase-C agonist; (C4:C12, C7:C15) bicycle peptide]
Week 8, 6 mg, ITT Population
  Change from Baseline in CSBMs, Mean (SD): 2.36 (3.243) CSBMs/week
[1]
  Change from Baseline in CSBMs, Difference from Placebo: 0.85 CSBMs/week
  Change from Baseline in CSBMs, LS Mean (SE): 2.35 (0.155) CSBMs/week
  Change from Baseline in CSBMs, Mean (SD): 2.37 (3.250) CSBMs/week
Week 8, Active Combined, ITT Population-Excluding Duplicate Patients
  Change from Baseline in CSBMs, Mean (SD): 2.52 (3.510) CSBMs/week
Week 8, Active Combined, ITT Population
  Change from Baseline in CSBMs, Mean (SD): 2.51 (3.498) CSBMs/week
Week 9, 3 mg, ITT Population
  Change from Baseline in CSBMs, Difference from Placebo: 0.94 CSBMs/week
  Change from Baseline in CSBMs, LS Mean (SE): 2.49 (0.156) CSBMs/week
  Change from Baseline in CSBMs, Mean (SD): 2.59 (3.459) CSBMs/week
[2]
  Change from Baseline in CSBMs, Difference from Placebo: 0.95 CSBMs/week
  Change from Baseline in CSBMs, LS Mean (SE): 2.53 (0.159) CSBMs/week
  Change from Baseline in CSBMs, Mean (SD): 2.62 (3.479) CSBMs/week
Week 9, 6 mg, ITT Population
  Change from Baseline in CSBMs, Difference from Placebo: 0.81 CSBMs/week
  Change from Baseline in CSBMs, LS Mean (SE): 2.37 (0.154) CSBMs/week
  Change from Baseline in CSBMs, Mean (SD): 2.38 (3.176) CSBMs/week
[3]
  Change from Baseline in CSBMs, Difference from Placebo: 0.81 CSBMs/week
  Change from Baseline in CSBMs, LS Mean (SE): 2.39 (0.156) CSBMs/week
  Change from Baseline in CSBMs, Mean (SD): 2.39 (3.184) CSBMs/week
Week 9, Active Combined, ITT Population-Excluding Duplicate Patients
  Change from Baseline in CSBMs, Mean (SD): 2.50 (3.329) CSBMs/week
Week 9, Active Combined, ITT Population
  Change from Baseline in CSBMs, Mean (SD): 2.48 (3.316) CSBMs/week
Week 10, 3 mg, ITT Population
  Change from Baseline in CSBMs, Difference from Placebo: 0.85 CSBMs/week
  Change from Baseline in CSBMs, LS Mean (SE): 2.49 (0.156) CSBMs/week
  Change from Baseline in CSBMs, Mean (SD): 2.63 (3.617) CSBMs/week
[4]
  Change from Baseline in CSBMs, Difference from Placebo: 0.87 CSBMs/week
  Change from Baseline in CSBMs, LS Mean (SE): 2.52 (0.159) CSBMs/week
  Change from Baseline in CSBMs, Mean (SD): 2.65 (3.637) CSBMs/week
Week 10, 6 mg, ITT Population
  Change from Baseline in CSBMs, Difference from Placebo: 0.86 CSBMs/week
  Change from Baseline in CSBMs, LS Mean (SE): 2.50 (0.154) CSBMs/week
  Change from Baseline in CSBMs, Mean (SD): 2.51 (3.288) CSBMs/week
[5]
  Change from Baseline in CSBMs, Difference from Placebo: 0.87 CSBMs/week
  Change from Baseline in CSBMs, LS Mean (SE): 2.52 (0.156) CSBMs/week
  Change from Baseline in CSBMs, Mean (SD): 2.51 (3.288) CSBMs/week
Week 10, Active Combined, ITT Population-Excluding Duplicate Patients
  Change from Baseline in CSBMs, Mean (SD): 2.58 (3.458) CSBMs/week
Week 10, Active Combined, ITT Population
  Change from Baseline in CSBMs, Mean (SD): 2.57 (3.449) CSBMs/week
Week 11, 3 mg, ITT Population
  Change from Baseline in CSBMs, Difference from Placebo: 0.96 CSBMs/week
  Change from Baseline in CSBMs, LS Mean (SE): 2.56 (0.157) CSBMs/week
  Change from Baseline in CSBMs, Mean (SD): 2.71 (3.710) CSBMs/week
[6]
  Change from Baseline in CSBMs, Difference from Placebo: 0.99 CSBMs/week
  Change from Baseline in CSBMs, LS Mean (SE): 2.61 (0.159) CSBMs/week
  Change from Baseline in CSBMs, Mean (SD): 2.75 (3.728) CSBMs/week
Week 11, 6 mg, ITT Population
  Change from Baseline in CSBMs, Difference from Placebo: 0.80 CSBMs/week
  Change from Baseline in CSBMs, LS Mean (SE): 2.40 (0.155) CSBMs/week
  Change from Baseline in CSBMs, Mean (SD): 2.44 (3.276) CSBMs/week
[7]
  Change from Baseline in CSBMs, Difference from Placebo: 0.79 CSBMs/week
  Change from Baseline in CSBMs, LS Mean (SE): 2.41 (0.156) CSBMs/week
  Change from Baseline in CSBMs, Mean (SD): 2.43 (3.266) CSBMs/week
Week 11, Active Combined, ITT Population-Excluding Duplicate Patients
  Change from Baseline in CSBMs, Mean (SD): 2.58 (3.498) CSBMs/week
Week 11, Active Combined, ITT Population
  Change from Baseline in CSBMs, Mean (SD): 2.57 (3.493) CSBMs/week
Week 12, 3 mg, ITT Population
  Change from Baseline in CSBMs, Difference from Placebo: 0.94 CSBMs/week
  Change from Baseline in CSBMs, LS Mean (SE): 2.60 (0.157) CSBMs/week
  Change from Baseline in CSBMs, Mean (SD): 2.76 (3.785) CSBMs/week
[8]
  Change from Baseline in CSBMs, Difference from Placebo: 0.97 CSBMs/week
  Change from Baseline in CSBMs, LS Mean (SE): 2.64 (0.159) CSBMs/week
  Change from Baseline in CSBMs, Mean (SD): 2.78 (3.803) CSBMs/week
Week 12, 6 mg, ITT Population
  Change from Baseline in CSBMs, Difference from Placebo: 0.86 CSBMs/week
  Change from Baseline in CSBMs, LS Mean (SE): 2.51 (0.155) CSBMs/week
  Change from Baseline in CSBMs, Mean (SD): 2.57 (3.409) CSBMs/week
[9]
  Change from Baseline in CSBMs, Difference from Placebo: 0.84 CSBMs/week
  Change from Baseline in CSBMs, LS Mean (SE): 2.51 (0.157) CSBMs/week
  Change from Baseline in CSBMs, Mean (SD): 2.56 (3.366) CSBMs/week
Week 12, Active Combined, ITT Population-Excluding Duplicate Patients
  Change from Baseline in CSBMs, Mean (SD): 2.67 (3.585) CSBMs/week
Week 12, Active Combined, ITT Population
  Change from Baseline in CSBMs, Mean (SD): 2.66 (3.596) CSBMs/week
[10]
  Change from Baseline in CSBMs, Difference from Placebo: 0.90 CSBMs/week
  Change from Baseline in CSBMs, LS Mean (SE): 2.27 (0.135) CSBMs/week
[11]
  Change from Baseline in CSBMs, Difference from Placebo: 0.91 CSBMs/week
  Change from Baseline in CSBMs, LS Mean (SE): 2.30 (0.137) CSBMs/week
[12]
  Change from Baseline in CSBMs, Difference from Placebo: 0.79 CSBMs/week
  Change from Baseline in CSBMs, LS Mean (SE): 2.16 (0.133) CSBMs/week
[13]
  Change from Baseline in CSBMs, Difference from Placebo: 0.79 CSBMs/week
  Change from Baseline in CSBMs, LS Mean (SE): 2.18 (0.135) CSBMs/week
